Reference: patent publication US9738591B2, “Antimicrobial compounds” (priority 2009, dated 2017)
Converted amounts (≈) assume the structure as drawn. “And” between values parts separate entries of the source, which are not always exact repeats. Equal entries are not always repeated. Where two headings read alike, the source gives them in different places.

Columns and labels:
S. aureus ATCC 29213 = assay: MIC and MBC by broth microdilution; format: cell-based; settings: Staphylococcus aureus, ATCC29213, CA-MHB, two independent replicates
Method: (§1) The method used was based on CLSI protocols for broth microdilution testing of these species. As recommended by CLSI, inocula were prepared by direct colony suspension, and the media used were cation-adjusted Mueller Hinton broth (CA-MHB) for Staphylococcus spp. and CA-MHB containing 5% lysed horse blood (CA-MHB+LHB) for Streptococcus spp. Briefly, 24 h blood agar plate (BA) cultures of Staphylococcus aureus strains NCTC 6571, ATCC 29213, ATCC 33592 (MRSA) and NCTC 10442 (MRSA), Staphylococcus epidermidis ATCC 29971, Staphylococcus xylosus ATCC 29971, Streptococcus pneumoniae strains ATCC 49619 and ATCC 6305, and Streptococcus pyogenes strains NCTC 8191 and NCTC 8302 were used to prepare 0.5 McFarland suspensions in saline. Two 640 μg/ml working stocks of TSB007 were prepared from a fresh master stock, one in CA-MHB for testing against the Staphylococcus spp. and the other in CA-MHB+LHB for testing against Streptococcus spp. The working stocks were further diluted 1/10 in these broths for adding to microtitre trays to test MICs of 32, 16, 8, 4, 2, 1, 0.5, 0.25, 0.125 and 0.06 μg/ml.
(§2) The wells of two 96-well microtitre trays (one for Staphylococcus spp. and one for Streptococcus spp.) were filled with 100 μl of the appropriate broth, except for the first column. The last column, a sterility control containing no TSB007 or inoculum, was filled with an additional 100 μl broth. Then 100 μl of the 64 μg/ml TSB007 solution was added to the first two columns, the contents of column 2 was mixed, then 100 μl of this was used in two-fold serial dilutions along the rest of the tray except the last two columns. The final 100 μl was discarded. […] Finally, to the first 11 wells of one row per strain, 100 μl of a 10^−2 dilution (in the appropriate broth) of the 0.5 McFarland suspension was added. The microtitre trays were then incubated at 35° C. for 24 h before the MICs were read visually. Wells were further subcultured (10 μl drop onto BA then incubated at 35° C. for 24 h) and colonies subsequently counted to determine minimum bactericidal concentrations (MBCs). The concentration of the initial inoculum was confirmed on BA by counting colonies from 2×10 μl spots of 10^−5 dilutions of the 0.5 McFarland suspensions. Testing was performed on two separate occasions.

[1] = test system: S. aureus ATCC 33592 (MRSA); assay: MIC and MBC by broth microdilution; format: cell-based; settings: Staphylococcus aureus, CA-MHB, two independent replicates
Method: as §1, §2

S. pneumoniae ATCC 49619 = assay: MIC and MBC by broth microdilution; format: cell-based; settings: Streptococcus pneumoniae, ATCC49619, CA-MHB+LHB, two independent replicates
Method: as §1, §2

S. pneumoniae ATCC 6305 = assay: MIC and MBC by broth microdilution; format: cell-based; settings: Streptococcus pneumoniae, ATCC6305, CA-MHB+LHB, two independent replicates
Method: as §1, §2

S. pyogenes NCTC 8191 = assay: MIC and MBC by broth microdilution; format: cell-based; settings: Streptococcus pyogenes, NCTC8191, CA-MHB+LHB, two independent replicates
Method: as §1, §2

S. pyogenes NCTC 8302 = assay: MIC and MBC by broth microdilution; format: cell-based; settings: Streptococcus pyogenes, NCTC8302, CA-MHB+LHB, two independent replicates
Method: as §1, §2

S. aureus NCTC 6571 = assay: Time-kill experiments; format: cell-based; settings: for effect on viability over the 4 h of the experiment: MHB, 37° C.; for effect on viability over the 4 h of the experiment / viable counts at 24 h: initial 0.5-1.0×10^7 CFU/ml
Method: An overnight 10 ml MHB culture of S. aureus NCTC 6571 was diluted to 0.5 McFarland in MHB then 1 ml was used to inoculate each of four 100 ml flasks prepared as follows: • 1) 9.0 ml MHB (control) • 2) 9.99 ml MHB plus 9.7 μl of TSB007 working stock at 2048 μg/ml (1.8 μg/ml) • 3) 9.98 ml MHB plus 19.5 μl of TSB007 working stock at 2048 μg/ml (3.6 μg/ml) • 4) […] MHB plus 256 μl of a TSB007 master stock (320 μg/ml).
The flasks were incubated at 37° C. for 10 min before inoculation. Samples (0.1 ml) were taken immediately after inoculation (time 0) and then at 15, 30, 60, 120 and 240 min. The samples were immediately diluted 10^−1 in 0.01 M phosphate buffered saline at pH 7.0 (PBS). Further 10-fold dilutions in PBS were made down to 10^−4 until the 60 min time point, and then down to 10^−6 for the remaining time points. Viable counts were estimated using 3×20 μl drops from each dilution on MHA which was then incubated at 37° C. overnight before counting. These were normalised against the initial counts from each flask. Testing was performed on three separated occasions.

[2] = test system: Citrobacter freundii NCTC 9750/ATCC 8090; assay: Disk diffusion; settings: 10 mg/ml, 20 μl; repeat
[3] = test system: Staphylococcus aureus (methicillin resistant) NCTC 10442; assay: Disk diffusion; settings: for zone of inhibition at 10000 µg/mL: Staphylococcus aureus
[4] = test system: Streptococcus pneumoniae ATCC 49619; assay: Disk diffusion; settings: 10 mg/ml, 20 μl, Mueller Hinton + Blood & Incubated in 5% CO2
[5] = test system: S. typhimurium TA98, TA100 and TA1535; assay: Ames Test for mutagenic activity, no metabolic activation; settings: for Number of colonies: duplicate plates

O=C(O)c1ccc(/C=C/c2cc(/C=C/c3ccc(C(=O)O)cc3)cc(/C=C/c3ccc(C(=O)O)cc3)c2)cc1 [TSB007]
MIC (S. aureus ATCC 29213; 35° C., 24 h): 4 µg/mL (≈ 7.74 µM)
MBC (S. aureus ATCC 29213): > 32 µg/mL
MIC ([1]; 35° C., 24 h): 2 to 4 µg/mL (≈ 3.87 to 7.74 µM)
MBC [1]: > 32 µg/mL
MIC (S. pneumoniae ATCC 49619; 35° C., 24 h): 32 µg/mL (≈ 61.9 µM)
MBC (S. pneumoniae ATCC 49619): > 32 µg/mL
MIC (S. pneumoniae ATCC 6305; 35° C., 24 h): > 32 µg/mL
MBC (S. pneumoniae ATCC 6305): > 32 µg/mL
MIC (S. pyogenes NCTC 8191; 35° C., 24 h): > 32 µg/mL
MBC (S. pyogenes NCTC 8191): > 32 µg/mL
MIC (S. pyogenes NCTC 8302; 35° C., 24 h): > 32 µg/mL
MBC (S. pyogenes NCTC 8302): > 32 µg/mL
effect on viability over the 4 h of the experiment (S. aureus NCTC 6571; 1.8 μg/ml): inhibitory
viable counts at 24 h (S. aureus NCTC 6571; 1.8 μg/ml): 10^8 CFU/ml
effect on viability over the 4 h of the experiment (S. aureus NCTC 6571; 3.6 μg/ml): inhibitory
viable counts at 24 h (S. aureus NCTC 6571; 3.6 μg/ml): 10^3-10^6 CFU/ml
viable cells at first time point (S. aureus NCTC 6571; 320 μg/ml (1.25×MBC), 15 min): below the limit of detection
kill (S. aureus NCTC 6571; 320 μg/ml (1.25×MBC), first time point of 15 min): > 99.9%
Zone diameters, Repeat Results [2]: 9 trim
Zone diameters, 24 h TSB007 ([3]; 10 mg/ml, 20 μl, 24 h): 18 trim
Zone diameters, 48 h TSB007 ([3]; 10 mg/ml, 20 μl, 48 h): 9 trim
Zone diameters, Repeat Results ([3]; 10 mg/ml, 20 μl, repeat): 23 trim
zone of inhibition at 10000 µg/mL ([3]; NCTC10442, 24 h, read-out: Zone diameters, 24 h AnO2): 17 mm
zone of inhibition at 10000 µg/mL ([3]; NCTC10442, 24 h, read-out: Zone diameters, 24 h O2): 14 mm
zone of inhibition at 10000 µg/mL ([3]; NCTC10442, 48 h, read-out: Zone diameters, 48 h AnO2): 17 mm
zone of inhibition at 10000 µg/mL ([3]; NCTC10442, 48 h, read-out: Zone diameters, 48 h O2): 11 mm
Zone diameters, 24 h TSB007 ([4]; 24 h): 16 trim
Zone diameters, 48 h TSB007 ([4]; 48 h): 16 trim
Ames Test result ([5]; 100, 300 and 1000 μg/plate, TA98, TA100, TA1535, no metabolic activation): negative
Number of colonies ([5]; TA98, 100 μg/plate, negative control 14, 12): 16 and 13
Number of colonies ([5]; TA98, 300 μg/plate, negative control 14, 12): 11
Number of colonies ([5]; TA98, 1000 μg/plate, negative control 14, 12): 3 and 2
Number of colonies ([5]; TA100, 100 μg/plate, negative control 113, 96): 111 and 92
Number of colonies ([5]; TA100, 300 μg/plate, negative control 113, 96): 110 and 105
Number of colonies ([5]; TA100, 1000 μg/plate, negative control 113, 96): 88 and 89
Number of colonies ([5]; TA1535, 100 μg/plate, negative control 28, 29): 17 and 29
Number of colonies ([5]; TA1535, 300 μg/plate, negative control 28, 29): 16 and 24
Number of colonies ([5]; TA1535, 1000 μg/plate, negative control 28, 29): 0
